Values joined by “and” are separate entries in the source; they are usually repeats but may differ in a detail not shown here. Equal entries are not always repeated. Toxic doses and inconclusive results are not listed.
Tested on: BDF1 mice, P388 leukemia ip, median survival T/C
Test: NCI In Vivo Anticancer Drug Screen. Data for tumor model P388 Leukemia (intraperitoneal) in B6D2F1 (BDF1) mice
Conditions: endpoint: median survival time, higher = longer survival
Method in brief: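 Survival ratio, drug arm over vehicle arm, in mice with a transplanted tumour.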

[1] = dose: 25.0 mg/kg/injection, schedule: Q01DX009 (ip), vehicle: Klucel (hydroxypropylcellulose) (HPC)
[2] = dose: 25.0 mg/kg/injection, schedule: Q01DX009 (ip), vehicle: saline with Tween-80
[3] = dose: 25.0 mg/kg/injection, schedule: Q01DX009 (ip), vehicle: saline
[4] = dose: 50.0 mg/kg/injection, schedule: Q01DX009 (ip), vehicle: Klucel (hydroxypropylcellulose) (HPC)
[5] = dose: 50.0 mg/kg/injection, schedule: Q01DX009 (ip), vehicle: saline
[6] = dose: 100.0 mg/kg/injection, schedule: Q01DX009 (ip), vehicle: Klucel (hydroxypropylcellulose) (HPC)
[7] = dose: 100.0 mg/kg/injection, schedule: Q01DX009 (ip), vehicle: saline
[8] = dose: 50.0 mg/kg/injection, schedule: Q01DX009 (ip), vehicle: saline with Tween-80
[9] = dose: 200.0 mg/kg/injection, schedule: Q01DX009 (ip), vehicle: saline with Tween-80
[10] = dose: 200.0 mg/kg/injection, schedule: Q01DX009 (ip), vehicle: saline
[11] = dose: 400.0 mg/kg/injection, schedule: Q01DX009 (ip), vehicle: Klucel (hydroxypropylcellulose) (HPC)
[12] = dose: 12.5 mg/kg/injection, schedule: Q04DX003 (ip), vehicle: saline
[13] = dose: 25.0 mg/kg/injection, schedule: Q04DX003 (ip), vehicle: saline
[14] = dose: 100.0 mg/kg/injection, schedule: Q01DX009 (ip), vehicle: saline with Tween-80
[15] = dose: 12.5 mg/kg/injection, schedule: Q01DX009 (ip), vehicle: saline
[16] = dose: 50.0 mg/kg/injection, schedule: Q04DX003 (ip), vehicle: saline with Tween-80
[17] = dose: 100.0 mg/kg/injection, schedule: Q04DX003 (ip), vehicle: saline with Tween-80
[18] = dose: 200.0 mg/kg/injection, schedule: Q01DX009 (ip), vehicle: Klucel (hydroxypropylcellulose) (HPC)

SMILES: NC(=O)C(Br)CBr (configuration not stated)
- T/C (dose: 1.5 mg/kg/injection, schedule: Q01DX009 (ip), vehicle: saline with Tween-80): 103 % of control
- T/C (dose: 3.0 mg/kg/injection, schedule: Q01DX009 (ip), vehicle: saline with Tween-80): 98 % of control
- T/C (dose: 12.0 mg/kg/injection, schedule: Q01DX009 (ip), vehicle: saline with Tween-80): 107 % of control and 115 % of control
- T/C [1]: 114 % of control
- T/C [2]: 105 % of control
- T/C [3]: 99 % of control
- T/C [4]: 94 % of control
- T/C [5]: 99 % of control
- T/C [6]: 114 % of control
- T/C [7]: 92 % of control

SMILES: c1ccc2sc(SNC3CCCCC3)nc2c1
- T/C (dose: 200.0 mg/kg/injection, schedule: Q04DX002 (ip), vehicle: saline): 103 % of control
- T/C (dose: 400.0 mg/kg/injection, schedule: Q04DX002 (ip), vehicle: saline): 122 % of control

SMILES: [O-][n+]1c(CN2CCCCC2)nc2cccc3c2c1-c1ccccc1-3
- T/C (dose: 12.5 mg/kg/injection, schedule: Q03HX008 (ip), vehicle: saline): 92 % of control
- T/C (dose: 12.5 mg/kg/injection, schedule: Q03HX016 (ip), vehicle: saline): 100 % of control
- T/C (dose: 12.5 mg/kg/injection, schedule: Q03HX024 (ip), vehicle: saline): 96 % of control
- T/C [2]: 105 % of control
- T/C (dose: 25.0 mg/kg/injection, schedule: Q03HX008 (ip), vehicle: saline): 95 % of control
- T/C (dose: 25.0 mg/kg/injection, schedule: Q03HX016 (ip), vehicle: saline): 99 % of control
- T/C (dose: 25.0 mg/kg/injection, schedule: Q03HX024 (ip), vehicle: saline): 93 % of control
- T/C [4]: 116 % of control
- T/C [8]: 108 % of control and 116 % of control
- T/C (dose: 50.0 mg/kg/injection, schedule: Q03HX008 (ip), vehicle: saline): 95 % of control
- T/C (dose: 50.0 mg/kg/injection, schedule: Q03HX016 (ip), vehicle: saline): 94 % of control
- T/C (dose: 50.0 mg/kg/injection, schedule: Q03HX024 (ip), vehicle: saline): 110 % of control
- T/C (dose: 50.0 mg/kg/injection, schedule: Q08HX027 (ip), vehicle: saline): 113 % of control
- T/C [6]: 100 % of control
- T/C (dose: 100.0 mg/kg/injection, schedule: Q03HX008 (ip), vehicle: saline): 92 % of control
- T/C (dose: 100.0 mg/kg/injection, schedule: Q03HX016 (ip), vehicle: saline): 90 % of control
- T/C (dose: 100.0 mg/kg/injection, schedule: Q03HX024 (ip), vehicle: saline): 115 % of control
- T/C (dose: 100.0 mg/kg/injection, schedule: Q08HX027 (ip), vehicle: saline): 119 % of control
- T/C (dose: 150.0 mg/kg/injection, schedule: Q01DX009 (oral), vehicle: saline): 91 % of control
- T/C [9]: 158 % of control
- T/C [10]: 222 % of control
- T/C (dose: 300.0 mg/kg/injection, schedule: Q01DX009 (oral), vehicle: saline): 95 % of control
- T/C [11]: 151 % of control
- T/C (dose: 400.0 mg/kg/injection, schedule: Q01DX009 (oral), vehicle: saline): 98 % of control
- T/C (dose: 600.0 mg/kg/injection, schedule: Q01DX009 (oral), vehicle: saline): 103 % of control

SMILES: O=C(CBr)c1cccnc1
- T/C (dose: 6.25 mg/kg/injection, schedule: Q04DX003 (ip), vehicle: saline): 104 % of control
- T/C [12]: 104 % of control
- T/C [13]: 95 % of control

SMILES: CCc1c(CC(=O)O)c2cc(C)ccc2n1Cc1ccc(Cl)cc1
- T/C [2]: 104 % of control
- T/C [8]: 109 % of control and 118 % of control
- T/C [14]: 104 % of control and 109 % of control

SMILES: COC(=O)C(I)C(OC)c1ccccc1 (configuration not stated)
- T/C [14]: 100 % of control
- T/C [9]: 105 % of control
- T/C (dose: 400.0 mg/kg/injection, schedule: Q01DX009 (ip), vehicle: saline with Tween-80): 110 % of control

SMILES: O=C(/C=C(\CN1CCCCC1)c1ccccc1)c1ccccc1
- T/C [1]: 100 % of control
- T/C (dose: 25.0 mg/kg/injection, schedule: Q04DX003 (ip), vehicle: Klucel (hydroxypropylcellulose) (HPC)): 91 % of control
- T/C [4]: 104 % of control
- T/C (dose: 50.0 mg/kg/injection, schedule: Q04DX003 (ip), vehicle: Klucel (hydroxypropylcellulose) (HPC)): 104 % of control
- T/C [6]: 109 % of control
- T/C (dose: 100.0 mg/kg/injection, schedule: Q04DX003 (ip), vehicle: Klucel (hydroxypropylcellulose) (HPC)): 108 % of control

SMILES: O=S(=O)([O-])[O-].OCCNCCNCC[OH2+].OCCNCCNCC[OH2+].[Cu+2]
- T/C (dose: 6.25 mg/kg/injection, schedule: Q01DX009 (ip), vehicle: saline): 94 % of control
- T/C [15]: 100 % of control
- T/C [3]: 94 % of control

SMILES: NC(=O)N(CCO)CCO
- T/C [7]: 100 % of control
- T/C (dose: 100.0 mg/kg/injection, schedule: Q04DX003 (ip), vehicle: saline): 100 % of control
- T/C [10]: 90 % of control
- T/C (dose: 200.0 mg/kg/injection, schedule: Q04DX003 (ip), vehicle: saline): 100 % of control
- T/C (dose: 400.0 mg/kg/injection, schedule: Q01DX009 (ip), vehicle: saline): 100 % of control
- T/C (dose: 400.0 mg/kg/injection, schedule: Q04DX003 (ip), vehicle: saline): 100 % of control

SMILES: OC(c1ccccc1)c1ccccc1
- T/C (dose: 100.0 mg/kg/injection, schedule: Q01DX001 (ip), vehicle: other): 95 % of control
- T/C (dose: 200.0 mg/kg/injection, schedule: Q01DX001 (ip), vehicle: other): 104 % of control
- T/C (dose: 400.0 mg/kg/injection, schedule: Q01DX001 (ip), vehicle: other): 100 % of control

SMILES: C=Cn1ccc(=O)[nH]c1=O (tested in a mixture with another compound)
- T/C [8]: 86 % of control
- T/C [14]: 121 % of control
- T/C [9]: 93 % of control

SMILES: C[S+](C)CCCNC(=O)c1csc(-c2csc(CCNC(=O)c3ccccc3)n2)n1
- T/C (dose: 8.0 mg/kg/injection, schedule: Q01DX009 (ip), vehicle: saline): 90 % of control
- T/C (dose: 16.0 mg/kg/injection, schedule: Q01DX009 (ip), vehicle: saline): 100 % of control
- T/C (dose: 32.0 mg/kg/injection, schedule: Q01DX009 (ip), vehicle: saline): 95 % of control

SMILES: Cn1nc(N)c2ncc(C(Cl)(Cl)Cl)nc21
- T/C [2]: 91 % of control
- T/C [16]: 105 % of control
- T/C [17]: 90 % of control

SMILES: COc1cccc(C=O)c1OC
- T/C [16]: 112 % of control
- T/C [17]: 107 % of control
- T/C (dose: 200.0 mg/kg/injection, schedule: Q04DX003 (ip), vehicle: saline with Tween-80): 112 % of control
- T/C (dose: 400.0 mg/kg/injection, schedule: Q04DX003 (ip), vehicle: saline with Tween-80): 107 % of control

SMILES: S=C(Nc1ccccn1)Nc1ccccn1
- T/C [1]: 99 % of control and 106 % of control
- T/C [4]: 99 % of control and 118 % of control
- T/C [6]: 89 % of control and 116 % of control
- T/C [18]: 98 % of control

SMILES: NC(CC1=CCC=CC1)C(=O)O (configuration not stated)
- T/C [5]: 96 % of control and 113 % of control
- T/C [7]: 117 % of control

SMILES: COc1ccc(-c2csc(=[N+]3CCCCC3)s2)cc1
- T/C [12]: 105 % of control
- T/C [13]: 122 % of control
- T/C (dose: 50.0 mg/kg/injection, schedule: Q04DX003 (ip), vehicle: saline): 87 % of control

SMILES: O=C(OCC1OC(n2cnc3c(=S)nc[nH]c32)C(OC(=O)c2ccc([N+](=O)[O-])cc2)C1OC(=O)c1ccc([N+](=O)[O-])cc1)c1ccc([N+](=O)[O-])cc1 (configuration not stated)
- T/C [4]: 100 % of control
- T/C [6]: 109 % of control
- T/C [18]: 109 % of control
- T/C [11]: 118 % of control

SMILES: O=N[O-].O=N[O-].[Co].[NH-]CC[N-]CCO.[NH-]CC[N-]CCO
- T/C (dose: 12.5 mg/kg/injection, schedule: Q01DX009 (ip), vehicle: water): 102 % of control and 115 % of control
- T/C (dose: 40.0 mg/kg/injection, schedule: Q01DX009 (ip), vehicle: water): 118 % of control
- T/C (dose: 50.0 mg/kg/injection, schedule: Q01DX009 (ip), vehicle: water): 100 % of control and 111 % of control
- T/C (dose: 100.0 mg/kg/injection, schedule: Q01DX009 (ip), vehicle: water): 101 % of control

SMILES: NC1=NS(=O)(=O)N=C(N)C1=NNc1ccccc1
- T/C [8]: 92 % of control
- T/C [14]: 99 % of control
- T/C [9]: 103 % of control

SMILES: CC(C)CC(NC(=O)CF)C(=O)O (configuration not stated)
- T/C (dose: 2.5 mg/kg/injection, schedule: Q01DX009 (ip), vehicle: saline): 111 % of control

SMILES: CC(=N\[O-])/C(C)=N/O.CC(=N\[O-])/C(C)=N/O.CCCc1ccncc1.[Cl-].[Cl-].[Rh+3]
- T/C [15]: 100 % of control
- T/C [3]: 102 % of control
- T/C [5]: 105 % of control
- T/C [7]: 102 % of control

Reference: PubChem BioAssay AID328 (DTP/NCI, 2004)
